In patent US20120225061A1, “TETRASUBSTITUTED CYCLOHEXYL COMPOUNDS AS KINASE INHIBITORS” (priority 2011, published 2012):

Tests used:
Pim3 kinase = Pim3 kinase (Homo sapiens, UniProt Q86V86); assay: Pim3 AlphaScreen assay (high ATP)
Experimental: The activity of Pim 1, Pim 2, & Pim 3 is measured using a homogeneous bead based system quantifying the amount of phosphorylated peptide substrate resulting from kinase-catalyzed phosphoryl transfer to a peptide substrate. Compounds to be tested are dissolved in 100% DMSO and directly distributed to a white 384-well plate at 0.25 μl per well. […] This is followed by the addition of 5 μl/well of Pim 1, Pim 2 or Pim 3 kinase in assay buffer (concentrations described below). Final assay concentrations (described below) are in 2.5% DMSO. The reactions are performed for ˜2 hours, then stopped by the addition of 10 μl of 0.75 μg/ml anti-phospho Ser/Thr antibody (Cell Signaling), 10 μg/ml Protein A AlphaScreen beads (Perkin Elmer), and 10 μg/ml streptavidin coated AlphaScreen beads in stop/detection buffer (50 mM EDTA, 95 mM Tris, pH=7.5, 0.01% Tween-20). The stopped reactions are incubated overnight in the dark. The phosphorylated peptide is detected via an oxygen anion initiated chemiluminescence/fluorescence cascade using the Envision plate reader (Perkin Elmer).

Pim2 kinase = Pim2 kinase (Homo sapiens, UniProt Q9P1W9); assay: Pim2 AlphaScreen assay (high ATP)
[1] = tested on: KMS11 (human myeloma cell line); assay: Cell proliferation assay (CellTiter-Glo) in KMS11 cells; assay type: cell-based; conditions: KMS-11, 72 h, Table 5, 3 days, read-out: KMS11-luc EC50
Experimental: KMS11 (human myeloma cell line), were cultured in IMDM supplemented with 10% FBS, sodium pyruvate and antibiotics. Cells were plated in the same medium at a density of 2000 cells per well into 96 well tissue culture plates, with outside wells vacant, on the day of assay.
Test compounds supplied in DMSO were diluted into DMSO at 500 times the desired final concentrations before dilution into culture media to 2 times final concentrations.
After 3 days plates were equilibrated to room temperature and equal volume of CellTiter-Glow Reagent (Promega) was added to the culture wells. The plates were agitated briefly and luminescent signal was measured with luminometer.

Pim1 kinase = Pim1 kinase (Homo sapiens, UniProt P11309); assay: Pim1 AlphaScreen assay (high ATP)
Pim1 kinase, sequence (P11309 whole entry): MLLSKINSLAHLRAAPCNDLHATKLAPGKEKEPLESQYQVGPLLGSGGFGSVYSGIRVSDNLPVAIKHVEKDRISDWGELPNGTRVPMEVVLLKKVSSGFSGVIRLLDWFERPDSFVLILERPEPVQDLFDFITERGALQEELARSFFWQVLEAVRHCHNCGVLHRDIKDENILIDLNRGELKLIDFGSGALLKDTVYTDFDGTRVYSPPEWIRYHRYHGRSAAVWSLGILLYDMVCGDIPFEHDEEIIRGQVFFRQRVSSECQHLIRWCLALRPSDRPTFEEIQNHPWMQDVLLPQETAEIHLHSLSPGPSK

Pim2 kinase, sequence (Q9P1W9 whole entry): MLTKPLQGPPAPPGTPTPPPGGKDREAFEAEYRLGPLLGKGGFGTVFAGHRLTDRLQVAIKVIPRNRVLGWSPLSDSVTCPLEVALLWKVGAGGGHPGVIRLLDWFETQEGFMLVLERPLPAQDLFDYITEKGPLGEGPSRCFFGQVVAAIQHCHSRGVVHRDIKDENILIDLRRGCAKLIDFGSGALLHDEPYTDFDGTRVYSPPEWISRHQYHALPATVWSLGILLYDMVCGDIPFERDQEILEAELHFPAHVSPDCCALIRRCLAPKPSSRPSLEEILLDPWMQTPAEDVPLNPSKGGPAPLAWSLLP

| IC50 (Pim3 kinase) | IC50 (Pim2 kinase) | EC50 [1] | IC50 (Pim1 kinase) | SMILES |
| --- | --- | --- | --- | --- |
| 2870 nM | 6340 nM | 3470 nM | 18.8 nM | C[C@@H]1C[C@H](c2ccncc2NC(=O)c2ccc(F)c(-c3c(F)cc(C(C)(C)O)cc3F)n2)C[C@H](O)[C@@]1(C)O [Example 74, 6-(2,6-difluoro-4-(2-hydroxypropan-2-yl)phenyl)-N-(4-((1S,3S,4S,5R)-3,4-dihydroxy-4,5-dimethylcyclohexyl)pyridin-3-yl)-5-fluoropicolinamide] |
| 5900 nM | 8640 nM | 5780 nM | 39.1 nM | C[C@@H]1C[C@H](c2ccncc2NC(=O)c2ccc(F)c(-c3c(F)cc(C4(O)COC4)cc3F)n2)C[C@H](O)[C@@]1(C)O [Example 75] |
| 117 nM | 264 nM | 1140 nM | 0.82 nM | C[C@H]1C[C@@H](c2ccncc2NC(=O)c2ccc(F)c(-c3c(F)cc(C4(O)COC4)cc3F)n2)C[C@@H](O)[C@]1(C)O [Example 76] |
| 83.3 nM | 93.7 nM | 136 nM | 0.97 nM | C[C@H]1C[C@@H](c2ccncc2NC(=O)c2ccc(F)c(-c3c(F)cc(CN4CCCC4=O)cc3F)n2)C[C@@H](O)[C@]1(C)O [Example 77, 6-(2,6-difluoro-4-((2-oxopyrrolidin-1-yl)methyl)phenyl)-N-(4-((1R,3R,4R,5S)-3,4-dihydroxy-4,5-dimethylcyclohexyl)pyridin-3-yl)-5-fluoropicolinamide] |
| 969 nM | 1570 nM | > 10000 nM | 18.7 nM | C[C@@H]1C[C@H](c2ccncc2NC(=O)c2ccc(F)c(-c3c(F)cc(CN4CCCC4=O)cc3F)n2)C[C@H](O)[C@@]1(C)O [Example 78, 6-(2,6-difluoro-4-((2-oxopyrrolidin-1-yl)methyl)phenyl)-N-(4-((1S,3S,4S,5R)-3,4-dihydroxy-4,5-dimethylcyclohexyl)pyridin-3-yl)-5-fluoropicolinamide] |
| 470 nM | 619 nM | > 10000 nM | 6.73 nM | C[C@@H]1C[C@H](c2ccncc2NC(=O)c2ccc(F)c(-c3c(F)cc(C4(O)CCCC4)cc3F)n2)C[C@H](O)[C@@]1(C)O [Example 79, 6-(2,6-difluoro-4-(1-hydroxycyclopentyl)phenyl)-N-(4-((1S,3S,4S,5R)-3,4-dihydroxy-4,5-dimethylcyclohexyl)pyridin-3-yl)-5-fluoropicolinamide] |
| 55 nM | 126 nM | 169 nM | 0.15 nM | C[C@H]1C[C@@H](c2ccncc2NC(=O)c2ccc(F)c(-c3c(F)cc(C4(O)CCCC4)cc3F)n2)C[C@@H](O)[C@]1(C)O [Example 80, 6-(2,6-difluoro-4-(1-hydroxycyclopentyl)phenyl)-N-(4-((1R,3R,4R,5S)-3,4-dihydroxy-4,5-dimethylcyclohexyl)pyridin-3-yl)-5-fluoropicolinamide] |
| 0.94 nM | 4.42 nM | 409 nM | 0.03 nM | C[C@H]1C[C@@H](c2ccncc2NC(=O)c2ccc(F)c(-c3c(F)cc(C4=CCCC4)cc3F)n2)C[C@@H](N)[C@]1(C)O [Example 81, N-(4-((1R,3R,4R,5S)-3-amino-4-hydroxy-4,5-dimethylcyclohexyl)pyridin-3-yl)-6-(4-cyclopentenyl-2,6-difluorophenyl)-5-fluoropicolinamide] |
| 1.18 nM | 2.68 nM | 43 nM | 0.02 nM | C[C@H]1C[C@@H](c2ccncc2NC(=O)c2ccc(F)c(-c3c(F)cc(C4(O)CCCC4)cc3F)n2)C[C@@H](N)[C@]1(C)O [Example 82, N-(4-((1R,3R,4R,5S)-3-amino-4-hydroxy-4,5-dimethylcyclohexyl)pyridin-3-yl)-6-(2,6-difluoro-4-(1-hydroxycyclopentyl)phenyl)-5-fluoropicolinamide] |
| 0.71 nM | 3.71 nM | 9300 nM | 0.03 nM | C[C@H]1C[C@@H](c2ccncc2NC(=O)c2nc(-c3c(F)cc(C4(O)CCOCC4)cc3F)sc2N)C[C@@H](N)[C@]1(C)O [Example 83, 5-amino-N-(4-((1R,3R,4R,5S)-3-amino-4-hydroxy-4,5-dimethylcyclohexyl)pyridin-3-yl)-2-(2,6-difluoro-4-(4-hydroxytetrahydro-2H-pyran-4-yl)phenyl)thiazole-4-carboxamide] |
| 0.48 nM | 2.8 nM | 343 nM | 0.01 nM | C[C@H]1C[C@@H](c2ccncc2NC(=O)c2nc(-c3c(F)cc(C4(F)CCOCC4)cc3F)sc2N)C[C@@H](N)[C@]1(C)O [Example 84, 5-amino-N-(4-((1R,3R,4R,5S)-3-amino-4-hydroxy-4,5-dimethylcyclohexyl)pyridin-3-yl)-2-(2,6-difluoro-4-(4-fluorotetrahydro-2H-pyran-4-yl)phenyl)thiazole-4-carboxamide] |
| 0.32 nM | 1.99 nM | 706 nM | 0.01 nM | C[C@H]1C[C@@H](c2ccncc2NC(=O)c2nc(-c3c(F)cc(C4CCOCC4)cc3F)sc2N)C[C@@H](N)[C@]1(C)O [Example 85, 5-amino-N-(4-((1R,3R,4R,5S)-3-amino-4-hydroxy-4,5-dimethylcyclohexyl)pyridin-3-yl)-2-(2,6-difluoro-4-(tetrahydro-2H-pyran-4-yl)phenyl)thiazole-4-carboxamide] |
| 2.46 nM | 2.74 nM | 66 nM | 0.03 nM | C[C@H]1C[C@@H](c2ccncc2NC(=O)c2ccc(F)c(-c3c(F)cc(C(C)(C)C#N)cc3F)n2)C[C@@H](N)[C@]1(C)O [Example 86, N-(4-((1R,3R,4R,5S)-3-amino-4-hydroxy-4,5-dimethylcyclohexyl)pyridin-3-yl)-6-(4-(2-cyanopropan-2-yl)-2,6-difluorophenyl)-5-fluoropicolinamide] |
| 0.41 nM | 1.91 nM | 57 nM | 0.01 nM | C[C@H]1C[C@@H](c2ccncc2NC(=O)c2ccc(F)c(-c3c(F)cc(N4CCOCC4)cc3F)n2)C[C@@H](N)[C@]1(C)O [Example 87, N-(4-((1R,3R,4R,5S)-3-amino-4-hydroxy-4,5-dimethylcyclohexyl)pyridin-3-yl)-6-(2,6-difluoro-4-morpholinophenyl)-5-fluoropicolinamide] |
| 5.59 nM | 5.8 nM | 101 nM | 0.03 nM | C[C@H]1C[C@@H](c2ccncc2NC(=O)c2ccc(F)c(-c3c(F)cc(C4(C#N)CCOCC4)cc3F)n2)C[C@@H](N)[C@]1(C)O [Example 88, N-(4-((1R,3R,4R,5S)-3-amino-4-hydroxy-4,5-dimethylcyclohexyl)pyridin-3-yl)-6-(4-(4-cyanotetrahydro-2H-pyran-4-yl)-2,6-difluorophenyl)-5-fluoropicolinamide] |
| 0.35 nM | 1.47 nM | 22 nM | 0.02 nM | C[C@H]1C[C@@H](c2ccncc2NC(=O)c2ccc(F)c(-c3c(F)cc(O[C@H]4CCCOC4)cc3F)n2)C[C@@H](N)[C@]1(C)O [Example 89, N-(4-((1R,3R,4R,5S)-3-amino-4-hydroxy-4,5-dimethylcyclohexyl)pyridin-3-yl)-6-(2,6-difluoro-4-((S)-tetrahydro-2H-pyran-3-yloxy)phenyl)-5-fluoropicolinamide] |
